Assay results taken from US10662229B2, “Spider venom peptides and methods of use for modulating sodium channels” (priority 2016, dated 2020).
Where a SMILES comes first, the peptide text is derived from it. Bridges are numbered along the chain shown (N, C = ends).

Legend:
Type in all cases: cell-based
[1] = molecular target: T1, hNav1.1 (Homo sapiens, UniProt P35498); assay: FLIPR membrane potential assay, hNav1.1; conditions: for Selectivity for Nav1.7, Nav subtype 1.1: membrane potential assay
T1 construct: host or cells: HEK293
How it was run: (§1)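 Stable HEK293 lines, one per hNav isoform; red membrane potential dye, 30 min, 37° C; FLIPR^TETRA read at 1 s intervals over 300 s post-agonist.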

[2] = molecular target: T2, hNav1.2 (Homo sapiens, UniProt Q99250); assay: FLIPR membrane potential assay, hNav1.2; conditions: for Selectivity for Nav1.7, Nav subtype 1.2: membrane potential assay
T2 construct: host or cells: HEK293
How it was run: as §1

[3] = molecular target: T3, hNav1.3 (Homo sapiens, UniProt Q9NY46); assay: FLIPR membrane potential assay, hNav1.3; conditions: for Selectivity for Nav1.7, Nav subtype 1.3: membrane potential assay
T3 construct: host or cells: HEK293
How it was run: as §1

[4] = molecular target: T4, hNav1.4 (Homo sapiens, UniProt P35499); assay: FLIPR membrane potential assay, hNav1.4; conditions: for Selectivity for Nav1.7, Nav subtype 1.4: membrane potential assay
T4 construct: host or cells: HEK293
How it was run: as §1

[5] = molecular target: T5, hNav1.5 (Homo sapiens, UniProt Q14524); assay: FLIPR membrane potential assay, hNav1.5; conditions: for Selectivity for Nav1.7, Nav subtype 1.5: membrane potential assay
T5 construct: host or cells: HEK293
How it was run: as §1

[6] = molecular target: T6, hNav1.6 (Homo sapiens, UniProt Q9UQD0); assay: FLIPR membrane potential assay, hNav1.6; conditions: for Selectivity for Nav1.7, Nav subtype 1.6: membrane potential assay
T6 construct: host or cells: HEK293
How it was run: as §1

[7] = molecular target: T7, hNav1.7 (Homo sapiens, UniProt Q15858); assay: FLIPR membrane potential assay, hNav1.7; conditions: for Selectivity for Nav1.7, Nav subtype 1.7: membrane potential assay, reference subtype
T7 construct: host or cells: HEK293
How it was run: as §1

[8] = molecular target: T8, hNav1.8 (Homo sapiens, UniProt Q9Y5Y9); assay: FLIPR membrane potential assay, hNav1.8; conditions: for Selectivity for Nav1.7, Nav subtype 1.8: membrane potential assay
T8 construct: host or cells: HEK293
How it was run: as §1

T6 sequence (Q9UQD0 whole entry): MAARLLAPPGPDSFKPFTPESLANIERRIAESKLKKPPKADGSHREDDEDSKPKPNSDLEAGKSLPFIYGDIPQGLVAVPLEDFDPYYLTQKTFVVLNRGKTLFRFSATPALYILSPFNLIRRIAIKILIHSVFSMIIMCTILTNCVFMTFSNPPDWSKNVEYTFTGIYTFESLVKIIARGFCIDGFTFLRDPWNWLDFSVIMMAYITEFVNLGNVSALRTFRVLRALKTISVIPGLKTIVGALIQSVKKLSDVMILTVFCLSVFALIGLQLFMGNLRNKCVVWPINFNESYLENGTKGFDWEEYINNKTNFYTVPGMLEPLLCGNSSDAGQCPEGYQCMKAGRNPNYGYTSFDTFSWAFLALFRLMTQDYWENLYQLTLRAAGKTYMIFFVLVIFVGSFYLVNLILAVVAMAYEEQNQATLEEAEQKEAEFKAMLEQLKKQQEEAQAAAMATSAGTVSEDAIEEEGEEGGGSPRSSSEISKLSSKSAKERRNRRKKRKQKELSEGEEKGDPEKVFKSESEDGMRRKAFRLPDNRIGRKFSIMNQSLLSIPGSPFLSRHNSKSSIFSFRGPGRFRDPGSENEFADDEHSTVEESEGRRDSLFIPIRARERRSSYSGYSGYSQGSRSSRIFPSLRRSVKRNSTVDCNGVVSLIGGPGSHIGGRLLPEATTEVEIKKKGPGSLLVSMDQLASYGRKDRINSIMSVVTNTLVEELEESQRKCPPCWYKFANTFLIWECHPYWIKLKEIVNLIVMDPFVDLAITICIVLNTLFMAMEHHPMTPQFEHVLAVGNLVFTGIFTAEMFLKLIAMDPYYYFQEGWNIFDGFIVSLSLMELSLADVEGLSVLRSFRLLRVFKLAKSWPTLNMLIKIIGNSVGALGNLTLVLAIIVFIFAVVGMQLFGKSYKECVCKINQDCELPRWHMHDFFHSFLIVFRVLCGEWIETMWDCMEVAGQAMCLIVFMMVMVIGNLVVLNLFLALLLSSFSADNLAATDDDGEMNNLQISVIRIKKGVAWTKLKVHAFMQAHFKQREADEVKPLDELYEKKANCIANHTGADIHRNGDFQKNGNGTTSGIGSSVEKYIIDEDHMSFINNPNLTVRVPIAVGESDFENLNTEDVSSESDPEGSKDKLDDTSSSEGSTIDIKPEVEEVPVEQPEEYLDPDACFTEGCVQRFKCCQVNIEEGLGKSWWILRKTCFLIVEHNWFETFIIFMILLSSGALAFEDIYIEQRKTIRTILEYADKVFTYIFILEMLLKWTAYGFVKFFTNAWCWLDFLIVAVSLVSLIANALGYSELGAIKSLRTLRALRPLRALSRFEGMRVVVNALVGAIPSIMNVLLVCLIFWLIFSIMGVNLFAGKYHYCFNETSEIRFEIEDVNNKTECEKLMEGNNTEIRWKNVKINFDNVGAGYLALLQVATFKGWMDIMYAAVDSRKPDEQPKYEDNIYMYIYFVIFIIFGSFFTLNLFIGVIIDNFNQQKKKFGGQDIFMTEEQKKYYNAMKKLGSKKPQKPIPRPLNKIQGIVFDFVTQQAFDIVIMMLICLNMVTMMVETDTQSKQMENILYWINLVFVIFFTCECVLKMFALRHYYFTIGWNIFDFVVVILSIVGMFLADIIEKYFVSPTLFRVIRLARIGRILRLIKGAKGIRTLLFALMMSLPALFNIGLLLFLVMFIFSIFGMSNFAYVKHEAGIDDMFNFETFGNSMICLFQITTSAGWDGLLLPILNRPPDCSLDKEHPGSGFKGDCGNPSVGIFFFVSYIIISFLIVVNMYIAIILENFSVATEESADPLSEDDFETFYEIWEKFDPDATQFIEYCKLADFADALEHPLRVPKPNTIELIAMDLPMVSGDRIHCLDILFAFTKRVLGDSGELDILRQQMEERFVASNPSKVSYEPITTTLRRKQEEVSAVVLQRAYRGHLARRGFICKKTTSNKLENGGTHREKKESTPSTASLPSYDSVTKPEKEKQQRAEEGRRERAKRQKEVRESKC
T4 sequence (P35499 whole entry): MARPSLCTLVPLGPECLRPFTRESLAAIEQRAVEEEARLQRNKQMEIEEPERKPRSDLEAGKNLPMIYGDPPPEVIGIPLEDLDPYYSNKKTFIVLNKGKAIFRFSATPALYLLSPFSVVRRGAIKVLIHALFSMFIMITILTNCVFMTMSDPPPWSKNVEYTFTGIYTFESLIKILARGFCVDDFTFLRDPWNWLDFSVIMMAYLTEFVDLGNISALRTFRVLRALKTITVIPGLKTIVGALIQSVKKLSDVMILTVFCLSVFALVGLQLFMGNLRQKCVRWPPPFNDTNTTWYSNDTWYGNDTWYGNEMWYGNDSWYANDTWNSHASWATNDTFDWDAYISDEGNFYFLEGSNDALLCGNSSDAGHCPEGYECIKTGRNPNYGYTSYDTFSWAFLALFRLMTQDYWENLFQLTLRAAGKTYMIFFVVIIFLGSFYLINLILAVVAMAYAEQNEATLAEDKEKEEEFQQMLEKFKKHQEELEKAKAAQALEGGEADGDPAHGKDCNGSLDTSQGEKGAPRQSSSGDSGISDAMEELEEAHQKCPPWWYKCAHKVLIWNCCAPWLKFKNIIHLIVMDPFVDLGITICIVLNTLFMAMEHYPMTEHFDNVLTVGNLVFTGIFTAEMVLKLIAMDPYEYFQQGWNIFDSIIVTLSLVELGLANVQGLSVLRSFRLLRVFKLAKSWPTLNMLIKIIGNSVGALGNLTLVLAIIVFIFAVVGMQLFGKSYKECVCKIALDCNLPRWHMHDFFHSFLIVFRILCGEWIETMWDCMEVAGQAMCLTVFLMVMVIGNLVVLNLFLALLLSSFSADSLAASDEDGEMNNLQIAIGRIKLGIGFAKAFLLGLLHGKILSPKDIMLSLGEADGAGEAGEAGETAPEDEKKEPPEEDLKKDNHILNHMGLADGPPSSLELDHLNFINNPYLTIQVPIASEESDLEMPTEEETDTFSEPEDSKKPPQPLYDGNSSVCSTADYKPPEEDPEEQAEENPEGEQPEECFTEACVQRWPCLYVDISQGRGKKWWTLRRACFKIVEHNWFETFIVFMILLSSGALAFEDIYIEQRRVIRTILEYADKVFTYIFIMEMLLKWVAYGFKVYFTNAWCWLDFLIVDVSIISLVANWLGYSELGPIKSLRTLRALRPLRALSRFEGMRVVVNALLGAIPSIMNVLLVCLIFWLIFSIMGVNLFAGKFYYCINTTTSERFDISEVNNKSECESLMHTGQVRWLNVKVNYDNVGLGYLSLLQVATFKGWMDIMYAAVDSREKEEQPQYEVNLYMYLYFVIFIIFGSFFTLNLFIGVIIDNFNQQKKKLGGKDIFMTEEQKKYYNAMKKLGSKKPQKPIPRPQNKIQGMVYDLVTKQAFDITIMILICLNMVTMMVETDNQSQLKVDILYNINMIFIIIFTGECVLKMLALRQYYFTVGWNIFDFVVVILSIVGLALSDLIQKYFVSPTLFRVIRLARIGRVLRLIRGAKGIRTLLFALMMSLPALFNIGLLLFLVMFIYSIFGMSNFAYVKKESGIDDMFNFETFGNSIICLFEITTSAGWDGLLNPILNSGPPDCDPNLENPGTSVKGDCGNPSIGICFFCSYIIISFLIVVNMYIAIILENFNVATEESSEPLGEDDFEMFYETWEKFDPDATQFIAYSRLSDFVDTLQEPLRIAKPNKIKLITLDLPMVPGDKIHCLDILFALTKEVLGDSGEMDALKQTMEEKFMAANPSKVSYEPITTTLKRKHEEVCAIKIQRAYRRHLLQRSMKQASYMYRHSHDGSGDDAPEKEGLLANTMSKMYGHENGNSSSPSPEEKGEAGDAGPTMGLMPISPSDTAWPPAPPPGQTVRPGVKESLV

## CSCC[C@@H]1NC(=O)[C@H](Cc2ccc(O)cc2)NC(=O)[C@H](CCCNC(=N)N)NC(=O)[C@@H](NC(=O)[C@@H](N)CC(=O)O)CSSC[C@@H]2NC(=O)[C@@H]3CSSC[C@@H](C(=O)N[C@@H](C)C(=O)N[C@@H](Cc4c[nH]c5ccccc45)C(=O)N[C@@H](CC(=O)O)C(=O)N[C@@H](Cc4ccccc4)C(=O)N[C@H](C(=O)N[C@@H](Cc4ccccc4)C(=O)N[C@H](C(=O)O)[C@@H](C)O)[C@@H](C)O)NC(=O)[C@H](Cc4ccc(O)cc4)NC(=O)[C@H](CCCCN)NC(=O)[C@H](CCSC)NC(=O)[C@H](CCCNC(=N)N)NC(=O)[C@H](CCCNC(=N)N)NC(=O)[C@H](CCCCN)NC(=O)[C@H](CSSC[C@H](NC(=O)[C@H](CC(=O)O)NC(=O)CNC(=O)[C@H](Cc4ccccc4)NC1=O)C(=O)N[C@@H](CCC(=O)O)C(=O)N[C@@H](CCCCN)C(=O)N[C@@H](CC(=O)O)C(=O)N[C@@H](CCC(=O)O)C(=O)N[C@@H](CC(=O)O)C(=O)N3)NC(=O)CNC(=O)[C@H](CC(C)C)NC(=O)[C@H](Cc1c[nH]cn1)NC(=O)[C@H](CCCCN)NC2=O [[K24R]Pnc1a] (H-DCRYMFGDCEKDEDCCKHLGCKRRMKYCAWDFTFT-OH; disulfide 2-16, 9-21, 15-28)
[1]
  IC50: 0.856 µM
  Selectivity for Nav1.7, Nav subtype 1.1: 27
[2]
  IC50: 0.414 µM
  Selectivity for Nav1.7, Nav subtype 1.2: 13
[3]
  IC50: 8 µM
  Selectivity for Nav1.7, Nav subtype 1.3: 260
[4]
  IC50: 3 µM
  Selectivity for Nav1.7, Nav subtype 1.4: 102
[5]
  IC50: > 30 µM
  Selectivity for Nav1.7, Nav subtype 1.5: >900
[6]
  IC50: > 30 µM
  Selectivity for Nav1.7, Nav subtype 1.6: >900
[7]
  IC50: 0.031 µM
  Selectivity for Nav1.7, Nav subtype 1.7: 1
[8]
  IC50: > 30 µM
  Selectivity for Nav1.7, Nav subtype 1.8: >900

## CSCC[C@@H]1NC(=O)[C@H](Cc2ccc(O)cc2)NC(=O)[C@H](CCCNC(=N)N)NC(=O)[C@@H](NC(=O)[C@H](CC(=O)O)NC(=O)[C@@H](N)CO)CSSC[C@@H]2NC(=O)[C@@H]3CSSC[C@@H](C(=O)N[C@@H](C)C(=O)N[C@@H](Cc4c[nH]c5ccccc45)C(=O)N[C@@H](CC(=O)O)C(=O)N[C@@H](Cc4ccccc4)C(=O)N[C@H](C(=O)N[C@@H](Cc4ccccc4)C(=O)N[C@H](C(=O)O)[C@@H](C)O)[C@@H](C)O)NC(=O)[C@H](Cc4ccc(O)cc4)NC(=O)[C@H](CCCCN)NC(=O)[C@H](CCSC)NC(=O)[C@H](CCCCN)NC(=O)[C@H](CCCNC(=N)N)NC(=O)[C@H](CCCCN)NC(=O)[C@H](CSSC[C@H](NC(=O)[C@H](CC(=O)O)NC(=O)CNC(=O)[C@H](Cc4ccccc4)NC1=O)C(=O)N[C@@H](CCC(=O)O)C(=O)N[C@@H](CCCCN)C(=O)N[C@@H](CC(=O)O)C(=O)N[C@@H](CCC(=O)O)C(=O)N[C@@H](CC(=O)O)C(=O)N3)NC(=O)CNC(=O)[C@H](CC(C)C)NC(=O)[C@H](Cc1c[nH]cn1)NC(=O)[C@H](CCCCN)NC2=O [S0-Pnc1a] (H-SDCRYMFGDCEKDEDCCKHLGCKRKMKYCAWDFTFT-OH; disulfide 3-17, 10-22, 16-29)
[1]
  IC50: 9 µM
  Selectivity for Nav1.7, Nav subtype 1.1: 32
[2]
  IC50: 3 µM
  Selectivity for Nav1.7, Nav subtype 1.2: 10
[3]
  IC50: 6 µM
  Selectivity for Nav1.7, Nav subtype 1.3: 22
[4]
  IC50: 11 µM
  Selectivity for Nav1.7, Nav subtype 1.4: 40
[5]
  IC50: > 30 µM
  Selectivity for Nav1.7, Nav subtype 1.5: >107
[6]
  IC50: 19 µM
  Selectivity for Nav1.7, Nav subtype 1.6: 68
[7]
  IC50: 0.282 µM
  Selectivity for Nav1.7, Nav subtype 1.7: 1
[8]
  IC50: > 30 µM
  Selectivity for Nav1.7, Nav subtype 1.8: >107
